In patent publication US8993544B2, “Carbamoylphosphonates as inhibitors and uses thereof” (priority 2009, dated 2015):

biological target: T1, human MMP-9 (Homo sapiens, UniProt P14780); experiment: Determination of MMP inhibitory potency, MMP-9; format: biochemical; settings: read-out: IC50 (μM) on MMP-9
T1 construct: purchased R&D Systems, Minneapolis
Protocol: (§1) Recombinant enzymes, human MMP-1, MMP-2, MMP-3, MMP-8, MMP-9, MMP-12, MMP-13 and TACE (R&D Systems, Minneapolis) were incubated at four different concentrations with the relevant colorimetric or fluorescent peptide substrates (R&D Systems, Minneapolis) for 3 h. The tested compounds were added at four to six different concentrations and the inhibitory potencies expressed in a colorimetric change, was measured by an ELISA or fluorimeter.

T1 sequence (P14780 94-707): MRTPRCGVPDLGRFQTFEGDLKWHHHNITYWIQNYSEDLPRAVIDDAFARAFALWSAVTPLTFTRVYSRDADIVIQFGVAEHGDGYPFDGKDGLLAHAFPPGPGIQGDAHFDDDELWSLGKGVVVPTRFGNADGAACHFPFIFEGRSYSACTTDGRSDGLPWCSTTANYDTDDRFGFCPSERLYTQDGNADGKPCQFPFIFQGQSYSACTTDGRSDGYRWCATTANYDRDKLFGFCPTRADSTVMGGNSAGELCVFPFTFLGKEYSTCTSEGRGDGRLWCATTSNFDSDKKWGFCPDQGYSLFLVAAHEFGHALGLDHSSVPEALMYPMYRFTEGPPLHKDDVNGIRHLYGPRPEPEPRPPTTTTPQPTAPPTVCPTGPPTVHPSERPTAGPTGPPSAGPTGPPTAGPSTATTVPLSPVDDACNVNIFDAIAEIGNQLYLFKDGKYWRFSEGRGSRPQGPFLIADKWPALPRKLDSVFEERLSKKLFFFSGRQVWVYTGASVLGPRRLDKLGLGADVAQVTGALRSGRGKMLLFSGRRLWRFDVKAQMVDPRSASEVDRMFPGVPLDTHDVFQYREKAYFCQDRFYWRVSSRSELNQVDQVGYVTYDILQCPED

SMILES	IC50 [µM]
O=C(NCCCNS(=O)(=O)c1ccc(Oc2ccccc2)cc1)P(=O)(O)O [Compound 2, 1-[4-phenoxybenzenesulfonamido]-3-[phosphonoformamido]propane]	> 100
O=C(NCCCCNS(=O)(=O)c1ccc(Oc2ccccc2)cc1)P(=O)(O)O [Compound 3, 1-[4-phenoxybenzenesulfonamido]-4-[phosphonoformamido]butane]	> 100
O=C(NCCCCCNS(=O)(=O)c1ccc(Oc2ccccc2)cc1)P(=O)(O)O [Compound 4]	> 100

biological target: T2, human MMP-12 (Homo sapiens, UniProt P39900); experiment: Determination of MMP inhibitory potency, MMP-12; format: biochemical; settings: read-out: IC50 (μM) on MMP-12
T2 construct: purchased R&D Systems, Minneapolis
Protocol: as §1

T2 sequence (P39900 106-470): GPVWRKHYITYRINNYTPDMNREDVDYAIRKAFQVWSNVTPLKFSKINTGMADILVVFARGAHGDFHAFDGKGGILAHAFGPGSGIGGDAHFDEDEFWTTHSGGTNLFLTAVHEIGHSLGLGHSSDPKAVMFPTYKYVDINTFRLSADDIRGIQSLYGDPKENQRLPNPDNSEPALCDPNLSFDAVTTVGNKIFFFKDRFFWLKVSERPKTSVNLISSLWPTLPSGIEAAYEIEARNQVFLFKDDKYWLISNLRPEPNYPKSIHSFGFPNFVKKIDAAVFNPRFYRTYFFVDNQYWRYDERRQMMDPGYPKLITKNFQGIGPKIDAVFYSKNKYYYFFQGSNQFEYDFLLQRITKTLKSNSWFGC

SMILES	IC50 [µM]
O=C(NCCCNS(=O)(=O)c1ccc(Oc2ccccc2)cc1)P(=O)(O)O [Compound 2, 1-[4-phenoxybenzenesulfonamido]-3-[phosphonoformamido]propane]	> 100
O=C(NCCCCNS(=O)(=O)c1ccc(Oc2ccccc2)cc1)P(=O)(O)O [Compound 3, 1-[4-phenoxybenzenesulfonamido]-4-[phosphonoformamido]butane]	> 100
O=C(NCCCCCNS(=O)(=O)c1ccc(Oc2ccccc2)cc1)P(=O)(O)O [Compound 4]	80

system: B16F10 tumor cells; experiment: Murine melanoma model of experimental metastasis; format: in vivo, C57B1 mice; settings: 50 mg/kg
Protocol: Experimental metastasis was studied in the murine melanoma model. In this model, B16F10 tumor cells (50 k) were injected into the tail vein of C57B1 6 week old female mice. After 21 days, the metastases formed on the lungs of the mice were counted after appropriate fixation. […] One group received the inhibitor intraperitoneally and the other group orally, dissolved in PBS. Mice were monitored for toxic symptoms at alternate days.

SMILES	inhibition of metastasis formation [%]
O=C(NCCCCCNS(=O)(=O)c1ccc(Oc2ccccc2)cc1)P(=O)(O)O [Compound 4]	> 80

same assay, conditions: Intraperitoneal, 25 mg/kg, daily for three weeks, B16F10 cells i.v.

SMILES	% reduction in lung metastases relative to control [%]
O=C(NCCCCCNS(=O)(=O)c1ccc(Oc2ccccc2)cc1)P(=O)(O)O [Compound 4]	76

same assay, conditions: Intraperitoneal, 50 mg/kg, daily for three weeks, B16F10 cells i.v.

SMILES	% reduction in lung metastases relative to control [%]
O=C(NCCCCCNS(=O)(=O)c1ccc(Oc2ccccc2)cc1)P(=O)(O)O [Compound 4]	90

same assay, conditions: Per-oral, 50 mg/kg, daily for three weeks, B16F10 cells i.v.

SMILES	% reduction in lung metastases relative to control [%]
O=C(NCCCCCNS(=O)(=O)c1ccc(Oc2ccccc2)cc1)P(=O)(O)O [Compound 4]	80

same assay, conditions: Per-oral, 150 mg/kg, daily for three weeks, B16F10 cells i.v.

SMILES	% reduction in lung metastases relative to control [%]
O=C(NCCCCCNS(=O)(=O)c1ccc(Oc2ccccc2)cc1)P(=O)(O)O [Compound 4]	86

biological target: T3, human MMP-8 (Homo sapiens, UniProt P22894); experiment: Determination of MMP inhibitory potency, MMP-8; format: biochemical; settings: read-out: IC50 (μM) on MMP-8
T3 construct: purchased R&D Systems, Minneapolis
Protocol: as §1

T3 sequence (P22894 101-467): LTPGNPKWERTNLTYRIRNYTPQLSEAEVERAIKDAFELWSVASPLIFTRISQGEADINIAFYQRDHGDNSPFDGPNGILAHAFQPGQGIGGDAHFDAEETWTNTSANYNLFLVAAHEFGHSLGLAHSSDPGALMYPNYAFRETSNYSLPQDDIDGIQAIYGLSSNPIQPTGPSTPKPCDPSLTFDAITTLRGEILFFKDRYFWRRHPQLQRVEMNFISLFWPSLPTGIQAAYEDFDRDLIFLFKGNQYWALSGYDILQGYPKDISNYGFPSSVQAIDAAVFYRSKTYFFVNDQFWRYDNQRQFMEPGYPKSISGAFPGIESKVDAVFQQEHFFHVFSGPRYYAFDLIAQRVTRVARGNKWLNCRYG

SMILES	IC50 [µM]
O=C(NCCCNS(=O)(=O)c1ccc(Oc2ccccc2)cc1)P(=O)(O)O [Compound 2, 1-[4-phenoxybenzenesulfonamido]-3-[phosphonoformamido]propane]	> 100
O=C(NCCCCNS(=O)(=O)c1ccc(Oc2ccccc2)cc1)P(=O)(O)O [Compound 3, 1-[4-phenoxybenzenesulfonamido]-4-[phosphonoformamido]butane]	> 100
O=C(NCCCCCNS(=O)(=O)c1ccc(Oc2ccccc2)cc1)P(=O)(O)O [Compound 4]	> 100

biological target: T4, MMP-2 (Homo sapiens, UniProt P08253); experiment: Determination of MMP inhibitory potency, MMP-2; format: biochemical; design: purchased R&D Systems, Minneapolis; settings: read-out: IC50 (μM) on MMP-2
T4 sequence (P08253 110-660): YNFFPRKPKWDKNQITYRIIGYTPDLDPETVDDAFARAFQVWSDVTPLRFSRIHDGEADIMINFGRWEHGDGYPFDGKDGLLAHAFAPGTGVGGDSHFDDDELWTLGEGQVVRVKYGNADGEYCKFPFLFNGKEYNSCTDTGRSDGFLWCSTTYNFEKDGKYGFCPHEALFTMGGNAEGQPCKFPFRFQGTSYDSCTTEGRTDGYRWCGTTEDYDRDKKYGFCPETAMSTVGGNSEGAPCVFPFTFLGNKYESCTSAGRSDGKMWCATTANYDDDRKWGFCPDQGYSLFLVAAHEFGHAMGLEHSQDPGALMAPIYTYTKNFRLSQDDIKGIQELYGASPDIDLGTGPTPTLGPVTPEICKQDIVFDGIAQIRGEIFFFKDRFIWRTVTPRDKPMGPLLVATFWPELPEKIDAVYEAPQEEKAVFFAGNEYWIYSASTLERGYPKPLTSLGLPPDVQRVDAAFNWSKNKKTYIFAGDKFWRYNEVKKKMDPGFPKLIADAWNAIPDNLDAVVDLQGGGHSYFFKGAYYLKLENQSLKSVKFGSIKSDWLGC
Protocol: as §1

SMILES	IC50 [µM]
O=C(NCCCNS(=O)(=O)c1ccc(Oc2ccccc2)cc1)P(=O)(O)O [Compound 2, 1-[4-phenoxybenzenesulfonamido]-3-[phosphonoformamido]propane]	10
O=C(NCCCCNS(=O)(=O)c1ccc(Oc2ccccc2)cc1)P(=O)(O)O [Compound 3, 1-[4-phenoxybenzenesulfonamido]-4-[phosphonoformamido]butane]	7
O=C(NCCCCCNS(=O)(=O)c1ccc(Oc2ccccc2)cc1)P(=O)(O)O [Compound 4]	5

system: MMP and/or ADAM enzyme; experiment: Duration of inhibitory effect on the enzymes inhibited; format: biochemical, human; settings: not given
Protocol: Previously, it has been established that cis-2-aminocyclohexycarbamoyl phosphonic acid (cis-ACCP), listed for the purpose of comparison in Tables 2 and 3 as “control”, was an effective nontoxic, in vivo active antimetastatic compound. […] In the study leading to the subject invention, it was determined that the inhibitory effect could be, and in fact was prolonged by substituting carbamoylphosphonic functionality with aromatic ring functionality as in the compounds of the invention. […]
as §1

SMILES	Duration of inhibitory effect [min]
O=C(NCCCNS(=O)(=O)c1ccc(Oc2ccccc2)cc1)P(=O)(O)O [Compound 2, 1-[4-phenoxybenzenesulfonamido]-3-[phosphonoformamido]propane]	>180
O=C(NCCCCNS(=O)(=O)c1ccc(Oc2ccccc2)cc1)P(=O)(O)O [Compound 3, 1-[4-phenoxybenzenesulfonamido]-4-[phosphonoformamido]butane]	>180

biological target: T5, human MMP-13 (Homo sapiens, UniProt P45452); experiment: Determination of MMP inhibitory potency, MMP-13; format: biochemical; settings: read-out: IC50 (μM) on MMP-13
T5 construct: purchased R&D Systems, Minneapolis
Protocol: as §1

SMILES	IC50 [µM]
O=C(NCCCNS(=O)(=O)c1ccc(Oc2ccccc2)cc1)P(=O)(O)O [Compound 2, 1-[4-phenoxybenzenesulfonamido]-3-[phosphonoformamido]propane]	25
O=C(NCCCCNS(=O)(=O)c1ccc(Oc2ccccc2)cc1)P(=O)(O)O [Compound 3, 1-[4-phenoxybenzenesulfonamido]-4-[phosphonoformamido]butane]	25
O=C(NCCCCCNS(=O)(=O)c1ccc(Oc2ccccc2)cc1)P(=O)(O)O [Compound 4]	60

system: tumor invasion; experiment: In vitro model of tumor invasion (Boyden chamber, reconstituted basement membrane); format: cell-based; settings: read-out: % Invasion-Inhibition by 50 μM drug
Protocol: The compound was also evaluated in an in vivo experimental model of metastasis using B16F10 tumor cells in C57B1 mice. […] The assay was carried out in a Boyden chamber with a reconstituted basement membrane (Matrigal).

SMILES	inhibition at 50 µM [%]
O=C(NCCCNS(=O)(=O)c1ccc(Oc2ccccc2)cc1)P(=O)(O)O [Compound 2, 1-[4-phenoxybenzenesulfonamido]-3-[phosphonoformamido]propane]	49
O=C(NCCCCNS(=O)(=O)c1ccc(Oc2ccccc2)cc1)P(=O)(O)O [Compound 3, 1-[4-phenoxybenzenesulfonamido]-4-[phosphonoformamido]butane]	60
O=C(NCCCCCNS(=O)(=O)c1ccc(Oc2ccccc2)cc1)P(=O)(O)O [Compound 4]	62

biological target: T6, human MMP-3 (Homo sapiens, UniProt P08254); experiment: Determination of MMP inhibitory potency, MMP-3; format: biochemical; settings: read-out: IC50 (μM) on MMP-3
T6 construct: purchased R&D Systems, Minneapolis
Protocol: as §1

T6 sequence (P08254 100-477): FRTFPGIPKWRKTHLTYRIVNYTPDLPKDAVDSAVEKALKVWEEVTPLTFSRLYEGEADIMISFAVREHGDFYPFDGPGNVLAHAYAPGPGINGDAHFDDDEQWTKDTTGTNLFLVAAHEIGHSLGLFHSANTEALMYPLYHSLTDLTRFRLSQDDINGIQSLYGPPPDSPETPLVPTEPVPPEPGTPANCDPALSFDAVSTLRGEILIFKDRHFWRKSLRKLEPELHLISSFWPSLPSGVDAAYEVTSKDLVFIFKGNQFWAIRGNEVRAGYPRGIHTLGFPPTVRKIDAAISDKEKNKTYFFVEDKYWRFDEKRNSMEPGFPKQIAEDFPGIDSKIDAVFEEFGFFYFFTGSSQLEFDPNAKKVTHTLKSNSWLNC

SMILES	IC50 [µM]
O=C(NCCCNS(=O)(=O)c1ccc(Oc2ccccc2)cc1)P(=O)(O)O [Compound 2, 1-[4-phenoxybenzenesulfonamido]-3-[phosphonoformamido]propane]	35
O=C(NCCCCNS(=O)(=O)c1ccc(Oc2ccccc2)cc1)P(=O)(O)O [Compound 3, 1-[4-phenoxybenzenesulfonamido]-4-[phosphonoformamido]butane]	> 100
O=C(NCCCCCNS(=O)(=O)c1ccc(Oc2ccccc2)cc1)P(=O)(O)O [Compound 4]	> 100

system: not given; experiment: not given; settings: not given

SMILES	melting point [°C]
O=C(NCCCNS(=O)(=O)c1ccc(Oc2ccccc2)cc1)P(=O)(O)O [Compound 2, 1-[4-phenoxybenzenesulfonamido]-3-[phosphonoformamido]propane]	165 to 168
O=C(NCCCCNS(=O)(=O)c1ccc(Oc2ccccc2)cc1)P(=O)(O)O [Compound 3, 1-[4-phenoxybenzenesulfonamido]-4-[phosphonoformamido]butane]	143 to 145

biological target: T7, TACE (Homo sapiens, UniProt P78536); experiment: Determination of inhibitory potency, TACE; format: biochemical; settings: read-out: IC50 (μM) on TACE
T7 construct: purchased R&D Systems, Minneapolis
Protocol: as §1

T7 sequence (P78536 215-824): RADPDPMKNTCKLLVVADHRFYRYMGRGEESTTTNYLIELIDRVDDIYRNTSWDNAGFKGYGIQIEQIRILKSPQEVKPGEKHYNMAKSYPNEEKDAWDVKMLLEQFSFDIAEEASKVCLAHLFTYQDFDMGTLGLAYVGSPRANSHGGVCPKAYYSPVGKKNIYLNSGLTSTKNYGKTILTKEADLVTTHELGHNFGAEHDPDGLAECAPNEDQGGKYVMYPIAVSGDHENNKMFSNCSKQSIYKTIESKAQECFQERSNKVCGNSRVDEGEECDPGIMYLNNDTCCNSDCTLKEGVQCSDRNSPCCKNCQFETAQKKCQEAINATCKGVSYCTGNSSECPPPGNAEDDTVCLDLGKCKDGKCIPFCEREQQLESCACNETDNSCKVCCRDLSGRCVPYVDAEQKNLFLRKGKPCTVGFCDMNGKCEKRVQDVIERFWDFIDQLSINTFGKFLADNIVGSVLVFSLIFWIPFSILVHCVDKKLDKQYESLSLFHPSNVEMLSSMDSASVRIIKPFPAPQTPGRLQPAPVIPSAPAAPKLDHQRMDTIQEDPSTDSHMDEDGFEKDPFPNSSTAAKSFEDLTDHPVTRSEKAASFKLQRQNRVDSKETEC

SMILES	IC50 [µM]
O=C(NCCCNS(=O)(=O)c1ccc(Oc2ccccc2)cc1)P(=O)(O)O [Compound 2, 1-[4-phenoxybenzenesulfonamido]-3-[phosphonoformamido]propane]	> 100
O=C(NCCCCNS(=O)(=O)c1ccc(Oc2ccccc2)cc1)P(=O)(O)O [Compound 3, 1-[4-phenoxybenzenesulfonamido]-4-[phosphonoformamido]butane]	> 100
O=C(NCCCCCNS(=O)(=O)c1ccc(Oc2ccccc2)cc1)P(=O)(O)O [Compound 4]	> 100
